In patent publication US11117876B2, “Crystalline form of ozanimod hydrochloride, and processes for preparation thereof” (RECEPTOS, LLC, priority 2017, dated 2021):
“Also recorded” adds a separate entry of the source. Counter-ions that a name gives are not always drawn.

What was measured:
Assay type in all cases: physicochemical
[1] = Mechanical stability of Form CS2 (manual grinding, XRPD); settings: ground manually for 5 minutes in a mortar
Experimental: Solid sample of Form CS2 was ground manually for 5 minutes in a mortar. The XRPD comparison pattern of Form CS2 before and after grinding is depicted in FIG. 8.

[2] = Dynamic solubility of Form CS2 in SGF, FeSSIF, FaSSIF and water; settings: for solubility at 1 h / solubility at 4 h / solubility at 24 h: thermodynamic from solid
Experimental: High Performance Liquid Chromatography (HPLC) data for solubility test in example 5 of the present disclosure were collected from an Agilent 1100 with Diode Array Detector (DAD). The HPLC method parameters are as follows: • Column: L005# Waters Xbridge C18, 150×4.6 mm, 5 μm • Mobile Phase: A: 0.1% TFA in H2O • B: 0.1% TFA in Acetonitrile
• Flow rate: 1.0 ml/min • Injection Volume: 5 μl • Detection wavelength: 270 nm • Column Temperature: 40° C. • Diluent: MeOH/THF (v/v, 6/4)
Simulated gastrointestinal fluids such as SGF (Simulated gastric fluids), FaSSIF (Fasted state simulated intestinal fluids) and FeSSIF (Fed state simulated intestinal fluids) are biorelevant media. Solubility in such media is closer to that in human environment, which can reflect the effects of gastrointestinal environment on drug release better.
20 mg of Form CS2 was suspended into 1.5 mL of SGF, 1.5 mL of […], 1.5 mL of […] and 1.5 mL of water to get saturated solutions. After equilibrated for 1 h, 4 h and 24 h, concentrations (mg/mL) of the saturated solutions were measured by HPLC.

[3] = Particle size distribution of Form CS2 (laser particle size analyzer); settings: wet mode, Isopar G
Experimental: The particle size distribution data in the present disclosure were acquired by an S3500 laser particle size analyzer of Microtrac. Microtrac S3500 is equipped with an SDC (Sample Delivery Controller). The test is carried out in wet mode, and the dispersion medium is Isopar G. The parameters are as follows:
10-30 mg of Form CS2 and 10 mL of Isopar G (containing 0.2% lecithin) were mixed thoroughly and then transferred into the SDC. The measurement was started when the sample amount indicator is in appropriate position. The average particle diameter calculated by volume, the diameter at which 10% mass is comprised of smaller particles, the diameter at which 50% mass is comprised of smaller particles and the diameter at which 90% mass is comprised of smaller particles were obtained in particle size distribution test.
Explanation of the abbreviations used in the present invention is as follows: • MV: Average particle diameter calculated by volume. • D10: the size in microns below which 10 percent of the particles reside on a volume basis. • D50: the size in microns below which 50 percent of the particles reside on a volume basis, also known as the median diameter. • D90: the size in microns below which 90 percent of the particles reside on a volume basis.

[4] = Hygroscopicity of Form CS2 by dynamic vapor sorption (DVS); settings: for Weight gain under 80% RH: 25° C., hydrochloride
Experimental: Dynamic Vapor Sorption (DVS) is measured via a SMS (Surface Measurement Systems Ltd.) intrinsic DVS instrument. Its control software is DVS-Intrinsic control software, and its analysis software is DVS-Intrinsic Analysis software. Typical Parameters for DVS test are as follows: • Temperature: 25° C. • Gas and flow rate: N2, 200 mL/min • dm/dt: 0.002%/min • RH range: 0% RH to 95% RH
Dynamic vapor sorption (DVS) was applied to test hygroscopicity of Form CS2 with about 10 mg of sample. The DVS plot of Form CS2 is depicted in FIG. 9.

[5] = Long-term and accelerated stability of Form CS2 (XRPD and HPLC purity after storage); settings: 7 weeks, open dish, hydrochloride
Text: X-ray powder diffraction pattern in the present disclosure was acquired by a Panalytical Empyrean X-ray powder diffractometer. The parameters of the X-ray powder diffraction method of the present disclosure were as follows: • X-ray Reflection: Cu, Kα. • Kα1 (Å): 1.540598; Kα2 (ÅA): 1.544426 • Kα2/Kα1 intensity ratio: 0.50 • Voltage: 45 (kV) • Current: 40 (mA) • Scan range: from 3.0 to 40.0 degree
High Performance Liquid Chromatography (HPLC) data for purity test in example 4 of the present disclosure were collected from an Agilent 1260 with UV Variable Wavelength Detector (VWD). The HPLC method parameters are as follows: • Column: Waters XBridge C18 150×4.6 mm, 5 μm • Mobile Phase: A: 0.1% TFA in H2O • B: 0.1% TFA in Acetonitrile
• Flow rate: 1.0 mL/min • Injection Volume: 10 μL • Detection wavelength: 270 nm • Column Temperature: 40° C. • Diluent: MeOH/THF (v/v, 6/4)
Three solid samples of Form CS2 were stored under the conditions of 25° C./60% RH, 40° C./75% RH and 60° C./75% RH for 7 weeks in open dishes. XRPD of the samples was tested and the physical stability results are shown in FIG. 7 (from top to bottom: XRPD pattern of Form CS2 before and after being stored under the conditions of 25° C./60% RH, 40° C./75% RH and 60° C./75% RH for 7 weeks). Chemical purity of Form CS2 was tested after stored under the conditions of 25° C./60% RH and 40° C./75% RH for 7 weeks and the results are shown in Table 4.

[6] = FaSSIF (fasted state simulated intestinal fluid), FaSSIF
[7] = FeSSIF (fed state simulated intestinal fluid), FeSSIF

Crystalline form change after grinding (XRPD) [1]: doesn't change | solubility at 1 h [2, 6]: 3000 µg/mL | solubility at 4 h ([2]; FaSSIF (fasted state simulated intestinal fluid), FaSSIF, 4 h): 3000 µg/mL | solubility at 24 h [2, 6]: 3100 µg/mL | solubility at 1 h [2, 7]: 300 µg/mL | solubility at 4 h ([2]; FeSSIF (fed state simulated intestinal fluid), FeSSIF, 4 h): 280 µg/mL | solubility at 24 h [2, 7]: 320 µg/mL | solubility at 24 h ([2]; SGF (simulated gastric fluid), simulated gastric fluid, SGF): 240 µg/mL | Solubility ([2]; SGF, 4 h): 210 µg/mL | Solubility (in words) ([2]; in SGF, FeSSIF, FaSSIF and H2O): high | solubility at 4 h ([2]; water, H2O, 4 h): 2200 µg/mL | solubility at 24 h ([2]; water, H2O): 2400 µg/mL | D10 [3]: 7.6 μm | D50 [3]: 44.90 μm | D90 [3]: 149.4 μm | Particle size distribution (in words) [3]: uniform | MV (average particle diameter calculated by volume) ([3]; hydrochloride): about 64.22 μm | MV (average particle diameter calculated by volume) ([3]; listed as CS2, hydrochloride): 64.22 μm | Weight gain under 80% RH [4]: 2.34% | Weight gain under 80% RH ([4]; listed as Form CS2 of ozanimod hydrochloride): 2.34% | Hygroscopicity (in words) ([4]; 80% RH): low
Compound: CC(C)Oc1ccc(-c2nc(-c3cccc4c3CC[C@@H]4NCCO)no2)cc1C#N [Form CS2, ozanimod hydrochloride]
Crystalline form change after storage (XRPD) ([5]; 25° C./60% RH): no form change; also recorded: doesn't change | Crystalline form change after storage (XRPD) ([5]; 40° C./75% RH): no form change; also recorded: doesn't change | Crystalline form change after storage (XRPD) ([5]; 60° C./75% RH): no form change; also recorded: doesn't change
